Assay results taken from ChEMBL document CHEMBL1133364, “Synthesis and activity of selective MMP inhibitors with an aryl backbone” (Bioorg Med Chem Lett, 2000).

What was measured:
Interstitial collagenase = target: T1, Interstitial collagenase (Homo sapiens, UniProt P03956); assay: 50 percent inhibition of human Matrix metalloprotease-1 by the cleavage of fluorogenic peptide MCA-Pro-Leu-Gly-Leu-Dpa-ala-Arg-NH2
T1 sequence (P03956 whole entry): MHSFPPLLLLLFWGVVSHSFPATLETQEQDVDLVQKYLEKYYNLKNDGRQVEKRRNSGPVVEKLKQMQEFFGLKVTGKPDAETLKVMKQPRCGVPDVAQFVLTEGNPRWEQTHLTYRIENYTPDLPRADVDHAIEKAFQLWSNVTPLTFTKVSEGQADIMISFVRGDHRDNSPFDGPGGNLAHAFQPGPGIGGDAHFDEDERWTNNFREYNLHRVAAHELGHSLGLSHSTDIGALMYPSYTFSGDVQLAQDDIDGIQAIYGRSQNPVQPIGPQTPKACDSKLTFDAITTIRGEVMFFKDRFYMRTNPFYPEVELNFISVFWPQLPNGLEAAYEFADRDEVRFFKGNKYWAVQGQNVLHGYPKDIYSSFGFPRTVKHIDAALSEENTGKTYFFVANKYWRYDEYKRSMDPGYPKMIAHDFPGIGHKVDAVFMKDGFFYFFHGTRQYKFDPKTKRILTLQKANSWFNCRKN

[1] = target: 72 kDa type IV collagenase (Homo sapiens, UniProt P08253)
Collagenase 3 = Collagenase 3 (Homo sapiens, UniProt P45452)

Chain of 72 kDa type IV collagenase (P08253 whole entry): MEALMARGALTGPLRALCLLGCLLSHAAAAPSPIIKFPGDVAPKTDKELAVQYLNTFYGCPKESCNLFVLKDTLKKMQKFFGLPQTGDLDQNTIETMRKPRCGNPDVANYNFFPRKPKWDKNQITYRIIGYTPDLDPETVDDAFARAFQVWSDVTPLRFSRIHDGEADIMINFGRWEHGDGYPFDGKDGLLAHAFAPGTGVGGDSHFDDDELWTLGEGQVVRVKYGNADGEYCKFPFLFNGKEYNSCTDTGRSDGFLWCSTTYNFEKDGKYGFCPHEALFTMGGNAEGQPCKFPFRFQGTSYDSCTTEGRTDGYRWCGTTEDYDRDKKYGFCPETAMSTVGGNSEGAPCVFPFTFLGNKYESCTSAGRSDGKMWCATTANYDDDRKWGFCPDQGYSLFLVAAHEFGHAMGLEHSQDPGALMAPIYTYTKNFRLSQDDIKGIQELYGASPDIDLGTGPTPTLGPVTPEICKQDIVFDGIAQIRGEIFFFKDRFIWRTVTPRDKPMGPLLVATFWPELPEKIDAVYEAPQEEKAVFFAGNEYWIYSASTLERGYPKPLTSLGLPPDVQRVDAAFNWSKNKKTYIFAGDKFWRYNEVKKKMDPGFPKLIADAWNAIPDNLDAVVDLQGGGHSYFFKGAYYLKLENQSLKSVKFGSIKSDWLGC

Structure (SMILES): O=C(NO)C1(CS(=O)(=O)c2ccc(Oc3ccc(Cl)cc3)cc2)CCOCC1 [CTS-1027]
- IC50 (Interstitial collagenase): 800 nM

Structure (SMILES): COc1ccc(C(=O)NC2CCN(S(=O)(=O)c3ccccc3C(=O)NO)C2)cc1 (single isomer, unassigned; (-))
- IC50 (Interstitial collagenase): > 10000 nM

Structure (SMILES): O=C(NO)c1c(F)cccc1S(=O)(=O)N1CCC(Oc2ccc(C(F)(F)F)cc2)CC1
- IC50 [1]: 3.3 nM

Structure (SMILES): O=C(NO)c1ccccc1S(=O)(=O)N1CCC(Oc2ccc(C(F)(F)F)cc2)CC1
- IC50 (Collagenase 3): 28 nM

Structure (SMILES): O=C(NO)c1ccccc1S(=O)(=O)N1CCC(c2ccccc2)CC1
- IC50 [1]: 70 nM
- IC50 (Collagenase 3): 520 nM

Structure (SMILES): O=C(NO)c1ccccc1S(=O)(=O)N1CCC(Oc2ccc(OC(F)(F)F)cc2)CC1
- IC50 [1]: 2 nM

Structure (SMILES): O=C(NO)c1ccccc1S(=O)(=O)N1CCC(Oc2ccc(C(F)(F)F)cc2)C1 (stereo not drawn)
- IC50 (Interstitial collagenase): > 10000 nM
